# Source: paper PMC12306736 (PLOS Genetics, 2025)
# Where two headings read alike, the source gives them in different places.
# Key:
# B. ovis [1] = assay: microbe, parasite or virus in culture; type: cell-based, Brucella ovis; details: for IC50: Brucella ovis
# B. ovis [2] = assay: microbe, parasite or virus in culture; type: cell-based, Brucella ovis; details: for IC50: Brucella ovis; remark: listed apart in the source
# THP-1 cells = details: human
# B. ovis [3] = type: cell-based, Brucella ovis
# B. abortus [4] = type: cell-based, Brucella abortus
# B. ovis [5] = type: cell-based, Brucella ovis; remark: listed apart in the source
# B. abortus [6] = type: cell-based, Brucella abortus; remark: listed apart in the source
# B. abortus [7] = assay: microbe, parasite or virus in culture; type: cell-based; details: Brucella abortus, THP-1, 48 h, read-out: IC50, intracellular B. abortus in THP-1 cells
# B. ovis [8] = type: cell-based, Brucella ovis; remark: listed apart in the source
# B. abortus [9] = type: cell-based, Brucella abortus; remark: listed apart in the source
# [10] = tested on: THP-1 macrophage-like cells; type: cell-based, human
# B. abortus [11] = type: cell-based
# B. ovis [12] = type: cell-based, Brucella ovis; remark: listed apart in the source
# [13] = THP-1, read-out: Intracellular IC50
# [14] = 48 h, read-out: Axenic B. ovis IC50 (Fig 1B)
# [15] = THP-1, 48 h, read-out: IC50 for inhibiting intracellular growth of B. ovis
smiles,measurement,setting,value
N[C@@H]1C[C@H]1c1ccccc1 (racemic) [Tranylcypromine],IC50,B. ovis [1]; read-out: Axenic IC50,> 50 µM
same,IC50,B. ovis [2]; [13],> 50 µM
same,CC50,THP-1 cells,> 50 µM
O=C1CCc2ccc(OCCCCN3CCN(c4cccc(Cl)c4Cl)CC3)cc2N1 [Aripiprazole],CC50,THP-1 cells,12 µM
c1ccc(-c2ccc(C(c3ccccc3)n3ccnc3)cc2)cc1 (stereo not drawn) [Bifonazole],IC50,B. ovis [1]; read-out: Axenic IC50,4 µM
same,Outcome of validation assays,B. ovis [2],inhibitors of intracellular replication that were not toxic to host cells
same,IC50,B. ovis [2]; [13],14 µM
same,CC50,THP-1 cells,> 50 µM
C[C@H](CCC(=O)NCCC[N+](C)(C)CCCS(=O)(=O)[O-])[C@H]1CC[C@H]2[C@@H]3[C@H](O)C[C@@H]4C[C@H](O)CC[C@]4(C)[C@H]3C[C@H](O)[C@]12C [CHAPS],Sensitivity of wild-type B. ovis on TSA blood plates,B. ovis [3],highly sensitive
same,Effect of bepE disruption on B. abortus sensitivity on solid media,B. abortus [4],did not affect sensitivity
COCCOC(=O)C1=C(C)NC(C)=C(C(=O)OC/C=C/c2ccccc2)C1c1cccc([N+](=O)[O-])c1 (stereo not drawn) [Cilnidipine],Growth of WT B. ovis in liquid culture,B. ovis [5],failed to grow over 72 h
same,Concentrations giving complete growth inhibition of axenic B. ovis,B. ovis [1],≥ 10 µM
same,IC50,B. ovis [1]; [14],5.09 µM
same,IC50,"B. ovis [1]; 48 h, read-out: Axenic IC50, B. ovis",~5 µM
same,IC50,B. ovis [1]; read-out: Axenic IC50,5 µM
same,Effect of bepE deletion on B. abortus sensitivity in THP-1 cells,B. abortus [6],increase sensitivity
same,IC50,B. abortus [7],13.5 µM
same,Axenic inhibition in high-throughput screen,B. ovis [8],< 35%
same,Sensitivity of WT B. abortus in axenic conditions,B. abortus [9],insensitive
same,Sensitivity of ∆bepE B. abortus in axenic conditions,B. abortus [9],insensitive
same,Effect of bepE disruption on B. abortus sensitivity on solid media,B. abortus [4],did not affect sensitivity
same,Outcome of validation assays,B. ovis [2],inhibitors of intracellular replication that were not toxic to host cells
same,IC50,B. ovis [2]; [15],2.5 µM
same,IC50,B. ovis [2]; [13],2 µM
same,CC50,THP-1 cells,> 50 µM
same,THP-1 host cell viability,THP-1 cells,does not affect THP-1 host cell viability
OCCN(CCO)c1nc(N2CCCCC2)c2nc(N(CCO)CCO)nc(N3CCCCC3)c2n1 [Dipyridamole],IC50,B. ovis [1]; read-out: Axenic IC50,> 50 µM
same,IC50,B. ovis [2]; [13],> 50 µM
same,CC50,THP-1 cells,41 µM
CCCCN(CCCC)CCC(O)c1cc2c(Cl)cc(Cl)cc2c2cc(C(F)(F)F)ccc12 (stereo not drawn) [Halofantrine],IC50,B. ovis [1]; read-out: Axenic IC50,11 µM
same,IC50,B. ovis [2]; [13],> 50 µM
same,CC50,THP-1 cells,> 50 µM
COc1ccc(CN2CCN(C(c3ccc(F)cc3)c3ccc(F)cc3)CC2)c(OC)c1OC [Lomerizine],IC50,B. ovis [1]; read-out: Axenic IC50,> 50 µM
same,Outcome of validation assays,B. ovis [2],inhibitors of intracellular replication that were not toxic to host cells
same,IC50,B. ovis [2]; [13],9 µM
same,CC50,THP-1 cells,50 µM
COC(=O)C1=C(C)NC(C)=C(C(=O)OCCN(C)Cc2ccccc2)C1c1cccc([N+](=O)[O-])c1 (stereo not drawn) [Nicardipine],Growth of WT B. ovis in liquid culture,B. ovis [5],modest lag
same,Increase in intracellular calcium level,[10],20–40%
same,Increase in intracellular manganese level,[10],20–40%
same,Other metal levels in THP-1 cells,[10],Most metal levels remained unchanged
same,Effect on terminal optical density of axenic B. ovis,B. ovis [1],no effect on the terminal optical density at any concentration tested
same,IC50,B. ovis [1]; [14],> 25 µM
same,IC50,B. ovis [1]; read-out: Axenic IC50,> 50 µM
same,Effect of bepE deletion on B. abortus sensitivity in THP-1 cells,B. abortus [6],did not alter sensitivity
same,Wild-type B. abortus CFUs recovered from treated THP-1 cells compared to untreated controls,B. abortus [6],significantly fewer
same,IC50,B. abortus [7],4.4 µM
same,Sensitivity of WT B. abortus in axenic conditions,B. abortus [9],insensitive
same,Sensitivity of ∆bepE B. abortus in axenic conditions,B. abortus [9],insensitive
same,Effect of bepE disruption on B. abortus sensitivity on solid media,B. abortus [4],did not affect sensitivity
same,Outcome of validation assays,B. ovis [2],inhibitors of intracellular replication that were not toxic to host cells
same,IC50,B. ovis [2]; [15],2.3 µM
same,IC50,B. ovis [2]; [13],2 µM
same,CC50,THP-1 cells,49 µM
same,THP-1 host cell viability,THP-1 cells,does not affect THP-1 host cell viability
CC1(C)S[C@@H]2[C@H](NC(=O)Cc3ccccc3)C(=O)N2[C@H]1C(=O)O [Penicillin G],Differential growth of B. abortus WT and ΔbepE in Biolog phenotype microarray,B. abortus [11],markedly inhibiting ΔbepE but not WT growth
same,Increase in susceptibility of B. abortus on deletion of bepE (spot-titration on agar),B. abortus [4],approximately five
CCOc1ccc(NC(C)=O)cc1 [Phenacetin],IC50,B. ovis [1]; read-out: Axenic IC50,> 50 µM
same,IC50,B. ovis [2]; [13],> 50 µM
same,CC50,THP-1 cells,> 50 µM
CC(=O)SCC(Cc1ccccc1)C(=O)NCC(=O)OCc1ccccc1 (stereo not drawn) [Racecadotril],IC50,B. ovis [1]; read-out: Axenic IC50,> 50 µM
same,IC50,B. ovis [2]; [13],> 50 µM
same,CC50,THP-1 cells,> 50 µM
"CCCCCCCCCCCCOS(=O)(=O)[O-].[Na+] [SDS, sodium dodecyl sulfate]",Sensitivity of wild-type B. ovis on TSA blood plates,B. ovis [3],highly sensitive
CC1(C)S[C@@H]2[C@H](NC(=O)C(C(=O)O)c3ccccc3)C(=O)N2[C@H]1C(=O)O (stereo partly drawn) [carbenicillin],Sensitivity of wild-type B. ovis on TSA blood plates,B. ovis [3],moderately sensitive
COC(=O)C1=C(C)NC(C)=C(C(=O)OC)C1c1ccccc1[N+](=O)[O-] [nifedipine],Hit status in B. ovis intracellular screen,B. ovis [12],neither compound emerged as a hit
COc1ccc(CCN(C)CCCC(C#N)(c2ccc(OC)c(OC)c2)C(C)C)cc1OC (stereo not drawn) [verapamil],Hit status in B. ovis intracellular screen,B. ovis [12],neither compound emerged as a hit
